Laboratory results from patent US20100035866A1, “NOVEL SUBSTITUTED-1, 1-DIOXO-BENZO[1,2,4]THIADIAZIN-3ONES, PREPARATION METHOD THEREOF, AND PHARMACEUTICAL COMPOSITION CONTAINING THE SAME” (KOREA RESEARCH INSTITUTE OF CHEMICAL TECHNOLOGY, priority 2006, published 2010).

Columns and labels:
5-HT1a = target: T1, 5-HT1a (Homo sapiens, UniProt P08908); test: Radioligand binding, 5-HT receptor family: 5-HT1a ([3H]8-OH-DPAT); conditions: CHO-K1 human recombinant receptor, [3H]8-OH-DPAT 0.5 nM; read-out: Binding affinity, IC50 (nM), 5-HT1a
T1 construct: purchased Euroscreen/BioSignal Packard Inc
T1 sequence (P08908 1-422): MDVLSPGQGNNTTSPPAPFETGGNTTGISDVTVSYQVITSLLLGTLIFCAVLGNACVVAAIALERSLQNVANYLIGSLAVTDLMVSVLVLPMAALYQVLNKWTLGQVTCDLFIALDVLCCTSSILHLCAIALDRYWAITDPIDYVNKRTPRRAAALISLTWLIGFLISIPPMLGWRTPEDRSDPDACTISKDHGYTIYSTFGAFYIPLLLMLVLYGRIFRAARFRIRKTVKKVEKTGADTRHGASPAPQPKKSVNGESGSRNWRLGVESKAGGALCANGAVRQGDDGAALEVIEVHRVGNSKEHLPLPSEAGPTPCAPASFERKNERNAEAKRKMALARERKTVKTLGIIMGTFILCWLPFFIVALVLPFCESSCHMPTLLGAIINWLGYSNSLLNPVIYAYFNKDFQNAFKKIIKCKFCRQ

5-HT2a = target: T2, 5-HT2a (Homo sapiens, UniProt P28223); test: Radioligand binding, 5-HT receptor family: 5-HT2a ([3H]Ketanserin); conditions: CHO-K1 human recombinant receptor, [3H]Ketanserin 1 nM; read-out: Binding affinity, IC50 (nM), 5-HT2a
T2 construct: purchased Euroscreen/BioSignal Packard Inc

5-HT2c = target: T3, 5-HT2c (Homo sapiens, UniProt P28335); test: Radioligand binding, 5-HT receptor family: 5-HT2c ([3H]Mesulergine); conditions: CHO-K1 human recombinant receptor, [3H]Mesulergine 1 nM; read-out: Binding affinity, IC50 (nM), 5-HT2c
T3 construct: purchased Euroscreen/BioSignal Packard Inc
T3 sequence (P28335 33-458): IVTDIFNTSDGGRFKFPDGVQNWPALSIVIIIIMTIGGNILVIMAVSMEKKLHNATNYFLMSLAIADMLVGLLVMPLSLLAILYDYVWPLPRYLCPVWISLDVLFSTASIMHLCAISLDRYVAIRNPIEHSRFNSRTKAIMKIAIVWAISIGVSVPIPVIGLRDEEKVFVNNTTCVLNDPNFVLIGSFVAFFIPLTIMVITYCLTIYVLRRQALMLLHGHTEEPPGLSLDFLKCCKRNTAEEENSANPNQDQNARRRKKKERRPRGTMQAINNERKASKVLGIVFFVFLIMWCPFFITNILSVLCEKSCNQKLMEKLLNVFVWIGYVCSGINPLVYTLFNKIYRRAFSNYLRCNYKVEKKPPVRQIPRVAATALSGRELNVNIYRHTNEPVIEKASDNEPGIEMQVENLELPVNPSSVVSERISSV

5-HT7 = target: T4, 5-HT7 (Homo sapiens, UniProt P34969); test: Radioligand binding, 5-HT receptor family: 5-HT7 ([3H]LSD); conditions: CHO-K1 human recombinant receptor, [3H]LSD 3 nM; read-out: Binding affinity, IC50 (nM), 5-HT7
T4 construct: purchased Euroscreen/BioSignal Packard Inc
Description: Radioligand bindings were performed according to the test method provided by the supplier of receptor membrane (Euroscreen/BioSignal Packard Inc.). The detailed assay conditions and the results were shown in the following Table 3 and Table 4, respectively.

D1 = D1 (Homo sapiens, UniProt P21728); test: Dopamine receptor family binding: D1; conditions: read-out: Binding affinity, IC50 (nM), D1
hD2L receptor = target: T5, hD2L receptor (Homo sapiens, UniProt P14416); test: Dopamine receptor family binding: D2 ([3H]spiperone); conditions: [3H]spiperone 1 nM; read-out: Binding affinity, IC50 (nM), D2
T5 construct: purchased BioSignal Packard Inc., Montreal, Canada
Description: (§1) 2-2: Binding Assays of Dopamine Receptor Family
(§2) The radioligands used were [^3H]spiperone (for hD2L and hD3 receptors, 1 nM) and [^3H] YM-09151-2 (for hD4.2 receptor, 0.06 nM). Radioligand bindings were performed by the protocols provided by the supplier of receptor membranes (BioSignal Packard Inc., Montreal, Canada). Briefly, the buffer used in D2 or D3 receptor binding assay was 50 mM Tris-HCl (pH 7.4), 10 mM MgCl2, 1 mM EDTA, or 50 mM Tris-HCl (pH 7.4), 5 mM MgCl2 5 mM EDTA, 5 mM KCl, 1.5 mM CaCl2, 120 mM NaCl, respectively. In [^3H] YM-09151-2 receptor binding assays, the buffer containing 50 mM Tris-HCl (pH 7.4), 5 mM MgCl2, 5 mM EDTA, 5 mM KCl and 1.5 mM CaCl2 was used. […] Competition binding studies were carried out with 7-8 concentrations of the test compound run in duplicate tubes, and isotherms from three assays were calculated by computerized nonlinear regression analysis (GraphPad Prism Program, San Diego, […]) to yield median inhibitory concentration (IC50) values.

hD3 receptor = target: T6, hD3 receptor (Homo sapiens, UniProt P35462); test: Dopamine receptor family binding: D3 ([3H]spiperone); conditions: [3H]spiperone 1 nM; read-out: Binding affinity, IC50 (nM), D3
T6 construct: purchased BioSignal Packard Inc., Montreal, Canada

hD4.2 receptor = target: T7, hD4.2 receptor (Homo sapiens, UniProt P21917, DEL265-296); test: Dopamine receptor family binding: D4 ([3H]YM-09151-2); conditions: [3H]YM-09151-2 0.06 nM; read-out: Binding affinity, IC50 (nM), D4
T7 construct: purchased BioSignal Packard Inc., Montreal, Canada
T7 sequence (P21917 with tags, fused parts or gaps DEL265-296): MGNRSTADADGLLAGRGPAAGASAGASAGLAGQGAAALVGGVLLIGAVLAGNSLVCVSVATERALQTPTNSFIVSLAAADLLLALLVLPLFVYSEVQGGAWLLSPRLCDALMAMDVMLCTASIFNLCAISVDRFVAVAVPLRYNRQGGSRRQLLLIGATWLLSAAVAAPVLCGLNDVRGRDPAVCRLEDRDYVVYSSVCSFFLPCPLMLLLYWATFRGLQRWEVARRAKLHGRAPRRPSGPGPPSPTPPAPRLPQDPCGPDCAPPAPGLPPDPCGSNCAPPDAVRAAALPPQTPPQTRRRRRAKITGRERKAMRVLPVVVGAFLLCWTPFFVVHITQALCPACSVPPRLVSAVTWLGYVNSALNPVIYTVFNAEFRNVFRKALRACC
Description: as §1, §2

mice = test: Rotarod deficit; conditions: mouse, in vivo
Description: The mouse was placed on a 1 inch diameter knurled plastic rod rotating at 6 rpm (Ugo-Basile, Milano, Italy), and the rotarod deficit (%) was obtained by counting the number of animals fallen from the rotating rod within 1 min (Dunham et al., 1957) at 30, 60, 90 and 120 min after the injection of test compound.

[1] = target: Human serotonin 5-HT6 receptor (Homo sapiens, UniProt P50406); test: [3H]LSD binding assay on cloned 5-HT6 receptor; conditions: IC50 (nM)
rats [2] = test: Apomorphine-induced disruption of prepulse inhibition (PPI) of acoustic startle; conditions: for effect on PPI of compound alone vs vehicle control: rats, 2.5, 5, 10 & 20 mg/kg, without apomorphine; for effect on PPI of compound alone vs vehicle control / reversal of disruption of PPI by apomorphine: i.p.; for mean startle amplitude vs apomorphine control group / reversal of disruption of PPI by apomorphine: rats; for mean startle amplitude vs apomorphine control group: administered 30 min before apomorphine; for reversal of disruption of PPI by apomorphine: pretreatment i.p. 30 min before apomorphine 2 mg/kg
[3] = test system: HeLa cells transfected with the human 5-HT6 receptor; test: Cytotoxicity in HeLa cells of the cAMP assay; assay type: cell-based; conditions: at the concentrations tested (0.001-10 μM)
5-HT6 receptors [4] = target: T8, 5-HT6 receptors (Homo sapiens, UniProt P50406); test: Adenylyl cyclase activity (cAMP accumulation) in HeLa cells transfected with human 5-HT6 receptor
5-HT6 receptors [5] = target: T8, 5-HT6 receptors; conditions: human 5-HT6 receptors, Glennon et al.; cited from earlier work
rat = conditions: cited from earlier work; for anticonvulsant activity: earlier finding
rats [6] = conditions: cited from earlier work
rats [7] = conditions: cited from earlier work; remark: listed apart in the source
[8] = frontal cortex and dorsal hippocampus; cited from earlier work
[9] = background art; cited from earlier work
5-HT6 receptors [10] = target: T8, 5-HT6 receptors; conditions: antipsychotics, Roth et al. 1994; cited from earlier work
[11] = Binding affinity, 5-HT6, Table 4
[12] = binding affinity to the 5-HT6 receptor, Table 2, 1.87 nM [3H]LSD, cloned human receptor membranes from Sf21 cells, 37° C. 60 min
[13] = HeLa, read-out: inhibition of 0.3 μM serotonin (5-HT)-induced increase in cAMP levels

T5 sequence (P14416 whole entry): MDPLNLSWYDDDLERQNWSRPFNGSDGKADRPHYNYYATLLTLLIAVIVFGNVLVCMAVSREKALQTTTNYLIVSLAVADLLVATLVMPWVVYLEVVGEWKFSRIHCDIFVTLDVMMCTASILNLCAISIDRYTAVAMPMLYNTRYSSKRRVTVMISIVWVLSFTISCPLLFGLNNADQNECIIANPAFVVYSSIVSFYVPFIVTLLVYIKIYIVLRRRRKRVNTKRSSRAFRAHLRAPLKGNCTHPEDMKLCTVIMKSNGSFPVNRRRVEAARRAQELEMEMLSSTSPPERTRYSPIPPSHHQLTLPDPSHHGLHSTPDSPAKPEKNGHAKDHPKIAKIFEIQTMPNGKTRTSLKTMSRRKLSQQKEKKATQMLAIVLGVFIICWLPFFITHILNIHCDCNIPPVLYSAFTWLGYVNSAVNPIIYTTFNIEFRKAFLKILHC
T4 sequence (P34969 whole entry): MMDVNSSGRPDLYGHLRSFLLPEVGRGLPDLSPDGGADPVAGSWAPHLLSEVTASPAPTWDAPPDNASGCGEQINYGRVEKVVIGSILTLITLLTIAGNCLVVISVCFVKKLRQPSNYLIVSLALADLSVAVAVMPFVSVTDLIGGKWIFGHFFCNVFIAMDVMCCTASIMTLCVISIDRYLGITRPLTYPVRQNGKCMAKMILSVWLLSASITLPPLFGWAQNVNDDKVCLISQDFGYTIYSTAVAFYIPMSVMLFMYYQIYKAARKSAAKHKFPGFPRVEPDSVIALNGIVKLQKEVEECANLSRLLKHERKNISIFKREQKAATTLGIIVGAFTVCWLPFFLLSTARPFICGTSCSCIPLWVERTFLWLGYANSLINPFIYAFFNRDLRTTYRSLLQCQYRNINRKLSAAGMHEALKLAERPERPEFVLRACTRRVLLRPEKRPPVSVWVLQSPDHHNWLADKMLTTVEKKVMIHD
T6 sequence (P35462 whole entry): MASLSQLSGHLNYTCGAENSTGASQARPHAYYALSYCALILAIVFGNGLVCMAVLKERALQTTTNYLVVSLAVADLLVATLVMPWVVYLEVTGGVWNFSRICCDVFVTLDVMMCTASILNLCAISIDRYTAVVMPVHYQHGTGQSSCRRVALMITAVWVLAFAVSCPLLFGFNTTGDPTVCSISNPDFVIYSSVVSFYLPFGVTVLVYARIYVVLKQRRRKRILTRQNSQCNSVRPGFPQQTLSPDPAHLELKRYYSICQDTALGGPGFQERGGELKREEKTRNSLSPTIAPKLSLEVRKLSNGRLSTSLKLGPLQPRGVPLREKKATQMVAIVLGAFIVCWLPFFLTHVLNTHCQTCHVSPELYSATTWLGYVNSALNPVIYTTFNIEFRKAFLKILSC
T2 sequence (P28223 whole entry): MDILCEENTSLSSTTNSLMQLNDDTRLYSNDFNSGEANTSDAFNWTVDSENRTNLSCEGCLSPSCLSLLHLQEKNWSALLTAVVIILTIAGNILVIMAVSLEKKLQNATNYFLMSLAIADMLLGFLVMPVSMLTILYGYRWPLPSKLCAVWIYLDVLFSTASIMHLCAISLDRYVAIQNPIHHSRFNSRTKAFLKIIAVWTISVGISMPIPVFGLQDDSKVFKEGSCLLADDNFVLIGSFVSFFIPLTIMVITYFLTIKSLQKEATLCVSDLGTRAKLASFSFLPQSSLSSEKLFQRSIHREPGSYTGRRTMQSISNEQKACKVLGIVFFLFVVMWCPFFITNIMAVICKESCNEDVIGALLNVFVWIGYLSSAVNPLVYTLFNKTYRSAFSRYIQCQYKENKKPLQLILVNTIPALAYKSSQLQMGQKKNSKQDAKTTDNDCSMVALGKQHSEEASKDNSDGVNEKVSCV
Chain of D1 (P21728 whole entry): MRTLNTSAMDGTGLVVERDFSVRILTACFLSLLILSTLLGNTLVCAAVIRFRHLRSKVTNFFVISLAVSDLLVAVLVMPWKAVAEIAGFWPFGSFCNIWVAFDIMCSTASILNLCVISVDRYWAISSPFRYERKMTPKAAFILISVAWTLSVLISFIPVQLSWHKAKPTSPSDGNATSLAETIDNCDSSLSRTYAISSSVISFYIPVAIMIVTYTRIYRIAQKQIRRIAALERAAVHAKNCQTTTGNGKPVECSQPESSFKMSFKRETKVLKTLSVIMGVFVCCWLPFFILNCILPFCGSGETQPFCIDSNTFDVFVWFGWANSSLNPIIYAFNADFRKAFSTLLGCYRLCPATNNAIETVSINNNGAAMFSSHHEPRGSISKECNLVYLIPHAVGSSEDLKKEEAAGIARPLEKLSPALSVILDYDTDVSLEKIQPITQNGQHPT
Chain of Human serotonin 5-HT6 receptor (P50406 whole entry): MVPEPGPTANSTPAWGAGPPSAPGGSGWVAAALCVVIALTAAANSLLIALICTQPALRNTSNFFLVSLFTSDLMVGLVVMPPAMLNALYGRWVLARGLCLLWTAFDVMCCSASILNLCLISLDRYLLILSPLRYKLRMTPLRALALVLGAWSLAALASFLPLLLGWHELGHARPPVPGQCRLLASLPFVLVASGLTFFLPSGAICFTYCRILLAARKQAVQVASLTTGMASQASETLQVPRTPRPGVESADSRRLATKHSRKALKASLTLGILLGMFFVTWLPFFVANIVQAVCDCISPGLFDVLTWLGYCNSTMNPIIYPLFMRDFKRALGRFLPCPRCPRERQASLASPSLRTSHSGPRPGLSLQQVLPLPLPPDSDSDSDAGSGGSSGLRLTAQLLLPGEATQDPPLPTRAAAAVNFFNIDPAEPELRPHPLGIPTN
T8 sequence (P50406 whole entry): as above

Structure (SMILES)	IC50 (5-HT1a) [nM]	IC50 (5-HT2a) [nM]	IC50 (5-HT2c) [nM]	IC50 (5-HT7) [nM]	IC50 (D1) [nM]	IC50 (hD2L receptor) [nM]	IC50 (hD3 receptor) [nM]	IC50 (hD4.2 receptor) [nM]	melting point [°C]	IC50 [1, 11] [nM]	IC50 [1, 12] [nM]	reversal of disruption of PPI by apomorphine (rats [2])	further results
CN1CCN(c2cc(Cl)cc3c2S(=O)(=O)N(Cc2ccccc2)C(=O)N3Cc2ccccc2)CC1 [Example 1, 2,4-Dibenzyl-6-chloro-8-(4-methyl-piperazin-1-yl)-1,1-dioxo-1,4-dihydro-2H-1λ^6-benzo[1,2,4]thiadiazin-3-one]	997	354	785	6580	3050	5810	633	> 10000	100 to 101	1.9	1.9	reversed significantly	rotarod ataxia / rotarod deficit (in words) (mice): did not show any rotarod ataxia; median neurotoxic dose (TD50), rotarod (mice; ip): more than 300 □/□; effect on PPI of compound alone vs vehicle control (rats [2]): no significant effect; mean startle amplitude vs apomorphine control group (rats [2]): no significant differences
O=C1N(Cc2ccccc2)c2cc(Cl)cc(N3CCNCC3)c2S(=O)(=O)N1Cc1ccccc1 [Example 44, 2,4-Dibenzyl-6-chloro-1,1-dioxo-8-piperazin-1-yl-1,4-dihydro-2H-1λ^6-benzo[1,2,4]thiadiazin-3-one]	5400	1160	1880	> 10000	6390	667	1210	> 10000	108 to 109	1	0.9	reversed significantly	cytotoxicity [3]: did not show any cytotoxicity; TD50 relative to effective doses obtained in the PPI test (mice): about 8 times; rotarod ataxia / rotarod deficit (in words) (mice): moderate rotarod deficit; effect on PPI of compound alone vs vehicle control (rats [2]): no significant effect; mean startle amplitude vs apomorphine control group (rats [2]): no significant differences; IC50 (5-HT6 receptors [4]): 0.0678 µM; 5-HT-induced increase in cAMP level inhibited (in words) (5-HT6 receptors [4]; FIG. 1): inhibited; inhibition at 0.001 µM (5-HT6 receptors [4]; [13]): 0%; inhibition at 0.01 µM (5-HT6 receptors [4]; [13]): 8%; inhibition at 0.1 µM (5-HT6 receptors [4]; [13]): 63%; inhibition at 1 µM (5-HT6 receptors [4]; [13]): 100%; inhibition at 10 µM (5-HT6 receptors [4]; [13]): 100%
Cc1cc(C)cc(CCCN2C(=O)N(Cc3ccccc3)c3cc(Cl)cc(N4CCNCC4)c3S2(=O)=O)c1 [Example 66, 4-Benzyl-6-chloro-2-[3-(3,5-dimethyl-phenyl)-propyl]-1,1-dioxo-8-piperazin-1-yl-1,4-dihydro-2H-1λ^6-benzo[1,2,4]thiadiazin-3-one]	1840	710	498	4530	1180	1640	488	> 10000	226 to 228	3.8	3.8	–	–
COc1ccc2c(c1)c(CCN(C)C)cn2S(=O)(=O)c1ccccc1 [MS-245]	–	–	–	–	–	–	–	–	–	–	–	–	pA2, antagonist (5-HT6 receptors [5]): 8.88
CNc1cc(NS(=O)(=O)c2ccc(N)cc2)nc(NC)n1 [Ro 04-6790]	–	–	–	–	–	–	–	–	–	–	–	–	anticonvulsant activity (rat): possess anticonvulsant activity; food intake (rats [6]): decreased food intake
COc1ccc(NS(=O)(=O)c2sc3ccc(Cl)cc3c2C)cc1N1CCNCC1 [SB-271046, reference compound]	–	–	–	–	–	–	–	–	–	–	–	did not reverse	retention of a previously learned task in water maze (rats [7]): significant improvement; extracellular glutamate levels [8]: increased extracellular glutamate levels in frontal cortex and dorsal hippocampus by several fold; anticonvulsant activity (rat): possess anticonvulsant activity
COc1ccc(S(=O)(=O)Nc2cc(Br)cc(F)c2Br)cc1N1CCNCC1 [SB-357134]	–	–	–	–	–	–	–	–	–	–	–	–	bioavailability (in words) [9]: excellent oral bioavailability; blood clearance (in words) [9]: low clearance rate; retention of a previously learned task in water maze (rats [7]): significant improvement; seizure threshold (rat maximal electroseizure threshold) (rat; oral administration): potent and dose-dependent increase
CN(C)CCCN1c2ccccc2Sc2ccc(Cl)cc21 [chlorpromazine]	–	–	–	–	–	–	–	–	–	–	–	–	binding affinity at 5-HT6 receptors (in words) (5-HT6 receptors [10]): high affinity
CN(C)CC/C=C1/c2ccccc2Sc2ccc(Cl)cc21 [chlorprothixene]	–	–	–	–	–	–	–	–	–	–	–	–	binding affinity at 5-HT6 receptors (in words) (5-HT6 receptors [10]): high affinity
